{"source": "PubChem BioAssay AID1259409", "about": "(Chemical Carcinogenesis Research Information System (CCRIS), 2018)", "origin": "cited, not measured here", "system": "rodent chemically induced tumor inhibition, incidence and multiplicity", "experiment": "CCRIS tumor inhibitor studies"}
{"smiles": "c1ccc2c(c1)Nc1ccccc1[Se]2", "values": [{"measurement": "tumour outcome (control, treated, inhibition, significance)", "setting": "Carcinogen: BENZO[A]PYRENE, 50-32-8, Dose [Inhibitor]: 0, 3.8 UMOL/G DIET BEGINNING 1 WK PRIOR TO CARCINOGEN TREATMENT AND CONTINUING FOR 1 WK POST CARCINOGEN TREATMENT FOLLOW, Route [Inhibitor]: ORAL, Species: MOUSE, Strain/Sex: CD-1/FEMALE, Target Tissue: Type of Lesion: FORESTOMACH: PAPILLOMA, Dose [Carcinogen]: 1 MG IN 0.2 ML CORN OIL 2/WK FOR 4 WK, Promoter: NONE USED", "value": "85%, 95%, -12%, not significant"}]}
{"smiles": "C/C=C/S/C=C/C", "values": [{"measurement": "tumour outcome (control, treated, inhibition, significance)", "setting": "Carcinogen: 7,12-DIMETHYLBENZ[A]ANTHRACENE, 57-97-6, Dose [Inhibitor]: 0, 1 MG IN 0.2 ML ACETONE APPLIED 30 MIN AFTER EACH MEZEREIN DOSE (STUDY DURATION: 20 WK), Route [Inhibitor]: DERMAL, Species: MOUSE, Strain/Sex: SENCAR/FEMALE, Target Tissue: Type of Lesion: SKIN: PAPILLOMA, Dose [Carcinogen]: 0.1 UMOL IN 0.2 ML ACETONE ONCE, Promoter: TPA, 16561-29-8, MEZEREIN, 37807-41-5, Promoter: TPA, 16561-29-8, MEZEREIN, 37807-41-5", "value": "100%, 86%, 14%, p<0.005"}, {"measurement": "tumour outcome (control, treated, inhibition, significance)", "setting": "Carcinogen: 7,12-DIMETHYLBENZ[A]ANTHRACENE, 57-97-6, Dose [Inhibitor]: 0, 1 MG IN 0.2 ML ACETONE APPLIED 30 MIN AFTER EACH TPA DOSE (STUDY DURATION: 20 WK), Route [Inhibitor]: DERMAL, Species: MOUSE, Strain/Sex: SENCAR/FEMALE, Target Tissue: Type of Lesion: SKIN: PAPILLOMA, Dose [Carcinogen]: 0.1 UMOL IN 0.2 ML ACETONE ONCE, Promoter: TPA, 16561-29-8, MEZEREIN, 37807-41-5, Promoter: TPA, 16561-29-8, MEZEREIN, 37807-41-5", "value": "100%, 91%, 9%, p<0.005"}]}
{"smiles": "S=C=NC(Cc1ccccc1)c1ccccc1", "note": "(centres undefined)", "values": [{"measurement": "tumour outcome (control, treated, inhibition, significance)", "setting": "Carcinogen: 4-(METHYLNITROSAMINO)-1-(3-PYRIDYL)-1-BUTANONE, 64091-91-4, Dose [Inhibitor]: 0, 1 UMOL ONCE 2 HR PRIOR TO CARCINOGEN DOSE (STUDY DURATION: 16 WK), Route [Inhibitor]: GAVAGE, Species: MOUSE, Strain/Sex: STRAIN-A/FEMALE, Target Tissue: Type of Lesion: LUNG: ADENOMA, Dose [Carcinogen]: 10 UMOL IN 0.1 ML SALINE ONCE, Promoter: NONE USED", "value": "100%, 60%, 40%, p<0.05"}, {"measurement": "tumour outcome (control, treated, inhibition, significance)", "setting": "Carcinogen: 4-(METHYLNITROSAMINO)-1-(3-PYRIDYL)-1-BUTANONE, 64091-91-4, Dose [Inhibitor]: 0, 5 UMOL ONCE 2 HR PRIOR TO CARCINOGEN DOSE (STUDY DURATION: 16 WK), Route [Inhibitor]: GAVAGE, Species: MOUSE, Strain/Sex: STRAIN-A/FEMALE, Target Tissue: Type of Lesion: LUNG: ADENOMA, Dose [Carcinogen]: 10 UMOL IN 0.1 ML SALINE ONCE, Promoter: NONE USED", "value": "100%, 45%, 55%, p<0.05"}]}
{"smiles": "O=c1c(O)c(-c2cc(O)c(O)c(O)c2)oc2cc(O)cc(O)c12", "values": [{"measurement": "tumour outcome (control, treated, inhibition, significance)", "setting": "Carcinogen: 7,12-DIMETHYLBENZ[A]ANTHRACENE, 57-97-6, Dose [Inhibitor]: 100 UG IN 0.2 ML ACETONE ONCE 5 MIN BEFORE CARCINOGEN TREATMENT (STUDY DURATION: 31 WK), Route [Inhibitor]: DERMAL, Species: MOUSE, Strain/Sex: CD-1/FEMALE, Target Tissue: Type of Lesion: SKIN: PAPILLOMA, Dose [Carcinogen]: 10 NMOL IN 0.2 ML ACETONE ONCE, Promoter: 12-O-TETRADECANOYLPHORBOL-13-ACETATE, 16561-29-8", "value": "87%, 85%, 2%, not calculated"}, {"measurement": "tumour outcome (control, treated, inhibition, significance)", "setting": "Carcinogen: (+/-)-7BETA,8ALPHA-DIHYDROXY-9ALPHA,10ALPHA-EPOXY-7,8,9,10-TETRAHYDROBENZO[A]PYR ENE, 58917-67-2, Dose [Inhibitor]: 0, 1400 NMOL (TOTAL DOSE) 10 MIN PRIOR TO CARCINOGEN DOSE INJECTED AS 1/7, 2/7, AND 4/7 OF THE TOTAL ON DAYS 1, 8, AND 1, Route [Inhibitor]: INTRAPERITONEAL, Species: MOUSE, Strain/Sex: ICR/MALE,FEMALE, Target Tissue: Type of Lesion: LUNG: TUMOR, Dose [Carcinogen]: 30 NMOL (TOTAL DOSE) INJECTED IN DOSES OF 1/7, 2/7, AND 4/7 ON DAYS 1,8, AND 15 OF LIFE, RESPECTIVELY, Promoter: NONE USED", "value": "93%, 65%, 30%, p<0.05"}, {"measurement": "tumour outcome (control, treated, inhibition, significance)", "setting": "Carcinogen: (+/-)-7BETA,8ALPHA-DIHYDROXY-9ALPHA,10ALPHA-EPOXY-7,8,9,10-TETRAHYDROBENZO[A]PYR ENE, 58917-67-2, Dose [Inhibitor]: 0, 1400 NMOL (TOTAL DOSE) APPLIED 10 MIN PRIOR TO CARCINOGEN DOSE INJECTED AS 1/7, 2/7, AND 4/7 OF THE TOTAL ON DAYS 1,, Route [Inhibitor]: INTRAPERITONEAL, Species: MOUSE, Strain/Sex: ICR/MALE,FEMALE, Target Tissue: Type of Lesion: LUNG: TUMOR, Dose [Carcinogen]: 15 NMOL (TOTAL DOSE) INJECTED IN DOSES OF 1/7, 2/7, AND 4/7 ON DAYS 1, 8, AND 15 OF LIFE, RESPECTIVELY, Promoter: NONE USED", "value": "63%, 36%, 43%, p<0.05"}, {"measurement": "tumour outcome (control, treated, inhibition, significance)", "setting": "Carcinogen: BENZO[A]PYRENE, 50-32-8, Dose [Inhibitor]: 0, 1400 NMOL (TOTAL DOSE) APPLIED 10 MIN PRIOR TO CARCINOGEN DOSE INJECTED AS 1/7, 2/7, AND 4/7 OF THE TOTAL ON DAYS 1,, Route [Inhibitor]: INTRAPERITONEAL, Species: MOUSE, Strain/Sex: ICR/MALE,FEMALE, Target Tissue: Type of Lesion: LUNG: TUMOR, Dose [Carcinogen]: 450 NMOL (TOTAL DOSE) INJECTED IN DOSES OF 1/7, 2/7, AND 4/7 ON DAYS 1, 8, AND 15 OF LIFE, RESPECTIVELY, Promoter: NONE USED", "value": "73%, 79%, -8%, not significant"}]}
{"smiles": "CC(C)=CCC1=C(O)[C@@](O)(CC=C(C)C)C(=O)C(C(=O)CC(C)C)=C1O", "values": [{"measurement": "tumour outcome (control, treated, inhibition, significance)", "setting": "Carcinogen: 7,12-DIMETHYLBENZ[A]ANTHRACENE : 57-97-6, Dose [Inhibitor]: 0, 1 MG IN 100 µL ACETONE/DMSO (9:1) 2/WK FOR 17 WK APPLIED 30 MIN PRIOR TO EACH PROMOTER DOSE (STUDY DURATION: 18 WK), Route [Inhibitor]: DERMAL, Species: MOUSE, Strain/Sex: ICR/FEMALE, Target Tissue: Type of Lesion: SKIN: PAPILLOMA, Dose [Carcinogen]: 50 UG IN 100 µL ACETONE ONCE, Promoter: 12-O-TETRADECANOYLPHORBOL-13-ACETATE, 16561-29-8", "value": "100%, 7%, 93%, not calculated"}]}
{"smiles": "S=C=NCc1cc2ccccc2c2ccccc12", "values": [{"measurement": "outcome", "setting": "Carcinogen: BENZO[A]PYRENE, 50-32-8, Dose [Inhibitor]: 0, 5 UMOL IN ACETONE 4 HR PRIOR TO CARCINOGEN DOSE (STUDY DURATION: 20 WK), Route [Inhibitor]: DERMAL, Species: MOUSE, Strain/Sex: STRAIN-A/FEMALE, Target Tissue: Type of Lesion: SKIN: TUMOR, Dose [Carcinogen]: 0.1 UMOL IN ACETONE ONCE, Promoter: 12-O-TETRADECANOYLPHORBOL-13-ACETATE, 16561-29-8", "value": "85%, 95%, -12%, not significant at 15 wk; 95%, 95%, 0%, not significant at 20 wk"}]}
{"smiles": "CC1=C(/C=C/C(C)=C/C=C/C(C)=C/CO)C(C)(C)CCC1", "values": [{"measurement": "tumour outcome (control, treated, inhibition, significance)", "setting": "Carcinogen: BENZO[A]PYRENE, 50-32-8, Dose [Inhibitor]: 0, 4000 IU/KG DIET BEGINNING 170 D PRIOR TO CARCINOGEN AND CONTINUING FOR STUDY DURATION (STUDY DURATION: 512 D), Route [Inhibitor]: ORAL, Species: HAMSTER, Strain/Sex: SYRIAN/MALE, Target Tissue: Type of Lesion: RESPIRATORY TRACT: TUMOR, Dose [Carcinogen]: 10 MG IN SALINE PLUS 8 MG FERRIC OXIDE 1/2 WK FOR 10 WK, Promoter: NONE USED", "value": "44%, 36%, 18%, not significant"}, {"measurement": "tumour outcome (control, treated, inhibition, significance)", "setting": "Carcinogen: BENZO[A]PYRENE, 50-32-8, Dose [Inhibitor]: 0, 100000 IU/KG DIET BEGINNING 170 D PRIOR TO CARCINOGEN AND CONTINUING FOR STUDY DURATION (STUDY DURATION: 512 D), Route [Inhibitor]: ORAL, Species: HAMSTER, Strain/Sex: SYRIAN/MALE, Target Tissue: Type of Lesion: RESPIRATORY TRACT: TUMOR, Dose [Carcinogen]: 10 MG IN SALINE PLUS 8 MG FERRIC OXIDE 1/2 WK FOR 10 WK, Promoter: NONE USED", "value": "44%, 35%, 20%, not significant"}]}
{"smiles": "O=P(O)(O)O", "values": [{"measurement": "tumour outcome (control, treated, inhibition, significance)", "setting": "Carcinogen: N-ETHYL-N-HYDROXYETHYLNITROSAMINE, 13147-25-6, Dose [Inhibitor]: 0, 10% IN DIET OF UNILATERALLY NEPHRECTOMIZED RATS BEGINNING POST CARCINOGEN TREATMENT AND CONTINUING FOR 18 WK (STUDY D, Route [Inhibitor]: ORAL, Species: RAT, Strain/Sex: WISTAR/MALE, Target Tissue: Type of Lesion: KIDNEY: RENAL CELL TUMOR, Dose [Carcinogen]: 1000 PPM IN DIET FOR 2 WK, Promoter: NONE USED", "value": "5/20 (25%), 3/18 (17%), 32%, not calculated"}]}
